# Assays:
# [1] = test system: S. aureus ATCC 29247 (ampicillin resistant strain); experiment: MIC against clinically isolated strain 1; format: cell-based; conditions: Staphylococcus aureus, ATCC29247
# Description: (§1) Procedure of Antimicrobial susceptibility test: The MIC value of compounds was measured in the antimicrobial susceptibility test using the broth microdilution procedure in accordance with the CLSI guidelines.^21 Cation-adjusted Mueller Hinton broth (CA-MHB) was used for all the S. aureus strains in the assay. Cells in exponential phase of growth were diluted to approximately 5×10^5 cfu/mL. Stock solutions of each compound were freshly dissolved in dimethyl sulfoxide (DMSO). Then, serial dilutions of each compound in CA-MHB medium were added into 96-well microplate. The final percentage of DMSO in the assay was 1%. Control experiments were performed with 1% DMSO instead of the compound solution. After being incubated at 37° C. for 18 h, OD600 value of cells was measured on a microplate reader and the percentage of bacterial cell inhibition with respect to controls was calculated. The MIC value was defined as the lowest compound concentration at which the growth of bacteria was inhibited by ≥90%. Three independent assays were performed for each compound.
# (§2) Results: Three compounds, namely 14av_amine16, 14dv_amine16 and 14dv_amine06, were selected to be tested against nine in-house clinically isolated bacterial strains including S. aureus ATCC29247, which is an ampicillin resistant strain, S. aureus ATCC BAA-41, ATCC BAA-1717, ATCC BAA-1720, ATCC 43300 which are methicillin resistant strains and four USA300 strains, (#417, #757, #1799 and #2690), which are the predominant strain type of community-associated MRSA strains in the United States.
# [2] = test system: USA300 #757 (community-associated MRSA); experiment: MIC against clinically isolated strain 7; format: cell-based, S. aureus; conditions: Staphylococcus aureus
# Description: as §1, §2
# S. aureus FtsZ = target: T1, S. aureus FtsZ (Staphylococcus aureus, UniProt P0A031); experiment: GTPase hydrolysis assay (CytoPhos phosphate assay); format: biochemical
# T1 construct: 6-histidine tag; made in house; host or cells: E. coli BL21(DE3)
# T1 sequence (P0A031 1-390): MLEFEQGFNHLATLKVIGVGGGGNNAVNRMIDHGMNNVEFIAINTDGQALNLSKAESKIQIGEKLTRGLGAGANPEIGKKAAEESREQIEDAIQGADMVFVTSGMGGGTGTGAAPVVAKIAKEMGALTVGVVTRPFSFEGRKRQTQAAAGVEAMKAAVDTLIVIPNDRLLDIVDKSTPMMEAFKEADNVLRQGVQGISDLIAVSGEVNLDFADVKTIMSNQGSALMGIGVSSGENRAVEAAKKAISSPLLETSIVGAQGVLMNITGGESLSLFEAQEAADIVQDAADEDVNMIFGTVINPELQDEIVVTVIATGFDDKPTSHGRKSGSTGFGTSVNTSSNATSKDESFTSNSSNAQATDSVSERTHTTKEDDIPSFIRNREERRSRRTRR
# Description: Procedure for expression and purification of S. aureus FtsZ protein: S. aureus FtsZ protein was prepared as previous reported.^16a In brief, E. coli BL21(DE3) cells, transformed with a pRSET-A-S vector carrying S. aureus FtsZ with a 6-histidine tag attached, were streaked on a nutrient agar plate containing 50 μg/mL ampicillin. After overnight incubation at 37° C., a single colony was inoculated into 5 mL of Luria-Bertani (LB) medium in the presence of 50 μg/mL ampicillin, which was then incubated at 37° C., with shaking at 250 rpm for 16 h. The overnight culture was transferred into a fresh 2×TY medium in a dilution ratio of 1:100 and 50 μg/mL ampicillin was then added, followed by incubation at 37° C. with shaking at 250 rpm. When OD600 reached 0.8, protein expression was induced with 0.4 mM isopropyl-β-D-thiogalactopyranoside (IPTG) for 4 h. Cells were harvested by centrifugation at 9000 rpm for 20 min at 4° C. […]
# Procedure: The inhibitory effect of compound 14av_amine16 on GTPase hydrolysis activity was investigated according to the protocol described previously.^18 The GTPase activity of S. aureus FtsZ was estimated in a 96-well microplate using a CytoPhos phosphate assay Biochem Kit based on the manufacturer's instructions. […] The precipitated inorganic phosphate was quantified by measuring the absorbance at 650 nm in a microplate reader. […]
# [3] = Compound solubility observed in aqueous medium of GTPase assay; format: physicochemical; conditions: higher concentration (>80 μM) causes precipitation in aqueous medium
# Text: Nonetheless, it seems very likely that compound 14av_amine16 suppresses the self-polymerization of FtsZ protein, probably via disrupting the GTPase hydrolysis activity of FtsZ protein.
# B. subtilis 168 = experiment: Bacterial morphology of B. subtilis 168 (phase-contrast microscopy); format: cell-based; conditions: sub-lethal concentration, 4 h
# Description: Procedure: The B. subtilis 168 cells were grown in LB medium. The cultures at an A600 of 0.01 from an overnight culture were inoculated in the same medium containing different concentrations of the test compounds and grown at 37° C. for 4 h. The cells for morphology studies were harvested and resuspended in 100 μL of PBS buffer containing 0.25% agarose. 10 μL of the suspension mixture were then placed on a microscopic slide pretreated with 0.1% (w/v) poly-L-lysine and the morphology of the bacterial cells was observed under a phase-contrast optical microscope at 40× magnification. The images were captured using an Olympus Bio Imaging Navigator FSX 100 microscope.
smiles,measurement,setting,value
"CCC(CC)c1cc(CCN2CCCN(Cc3ccc(C(F)(F)F)cc3)CC2)nc(-c2ccncc2)n1 [Compound 14av_amine16, 1-(2-(6-(pentan-3-yl)-2-(pyridin-4-yl)pyrimidin-4-yl)ethyl)-4-(4-(trifluoromethyl)benzyl)-1,4-diazepane]",MIC,[1],8 µM
same,MIC,[2],12 µM
same,inhibition at 50 µM,S. aureus FtsZ; compound at 50 μM,~20%
same,inhibition at 75 µM,S. aureus FtsZ; compound at 75 μM,~25%
same,compound solubility,[3],poor compound solubility
same,average cell length,B. subtilis 168,> 20 μm
